Target: not listed separately
Experiment: Inhibition of erbB2 overexpressing BT 474 cell proliferation

IC50 | Compound
70 nM | CN(C)c1cc2c(Nc3ccc4c(cnn4Cc4ccccc4)c3)ncnc2cn1 [N*4*-(1-Benzyl-1H-indazol-5-yl)-N*6*,N*6*-dimethyl-pyrido[3,4-d]pyrimidine-4,6-diamine]

Target: Receptor tyrosine-protein kinase erbB-2 (Rattus norvegicus, UniProt P06494)
Experiment: ChEBML_194950
From the text: Inhibition of rat Receptor protein-tyrosine kinase erbB2

Chain of Receptor tyrosine-protein kinase erbB-2 (P06494 whole entry): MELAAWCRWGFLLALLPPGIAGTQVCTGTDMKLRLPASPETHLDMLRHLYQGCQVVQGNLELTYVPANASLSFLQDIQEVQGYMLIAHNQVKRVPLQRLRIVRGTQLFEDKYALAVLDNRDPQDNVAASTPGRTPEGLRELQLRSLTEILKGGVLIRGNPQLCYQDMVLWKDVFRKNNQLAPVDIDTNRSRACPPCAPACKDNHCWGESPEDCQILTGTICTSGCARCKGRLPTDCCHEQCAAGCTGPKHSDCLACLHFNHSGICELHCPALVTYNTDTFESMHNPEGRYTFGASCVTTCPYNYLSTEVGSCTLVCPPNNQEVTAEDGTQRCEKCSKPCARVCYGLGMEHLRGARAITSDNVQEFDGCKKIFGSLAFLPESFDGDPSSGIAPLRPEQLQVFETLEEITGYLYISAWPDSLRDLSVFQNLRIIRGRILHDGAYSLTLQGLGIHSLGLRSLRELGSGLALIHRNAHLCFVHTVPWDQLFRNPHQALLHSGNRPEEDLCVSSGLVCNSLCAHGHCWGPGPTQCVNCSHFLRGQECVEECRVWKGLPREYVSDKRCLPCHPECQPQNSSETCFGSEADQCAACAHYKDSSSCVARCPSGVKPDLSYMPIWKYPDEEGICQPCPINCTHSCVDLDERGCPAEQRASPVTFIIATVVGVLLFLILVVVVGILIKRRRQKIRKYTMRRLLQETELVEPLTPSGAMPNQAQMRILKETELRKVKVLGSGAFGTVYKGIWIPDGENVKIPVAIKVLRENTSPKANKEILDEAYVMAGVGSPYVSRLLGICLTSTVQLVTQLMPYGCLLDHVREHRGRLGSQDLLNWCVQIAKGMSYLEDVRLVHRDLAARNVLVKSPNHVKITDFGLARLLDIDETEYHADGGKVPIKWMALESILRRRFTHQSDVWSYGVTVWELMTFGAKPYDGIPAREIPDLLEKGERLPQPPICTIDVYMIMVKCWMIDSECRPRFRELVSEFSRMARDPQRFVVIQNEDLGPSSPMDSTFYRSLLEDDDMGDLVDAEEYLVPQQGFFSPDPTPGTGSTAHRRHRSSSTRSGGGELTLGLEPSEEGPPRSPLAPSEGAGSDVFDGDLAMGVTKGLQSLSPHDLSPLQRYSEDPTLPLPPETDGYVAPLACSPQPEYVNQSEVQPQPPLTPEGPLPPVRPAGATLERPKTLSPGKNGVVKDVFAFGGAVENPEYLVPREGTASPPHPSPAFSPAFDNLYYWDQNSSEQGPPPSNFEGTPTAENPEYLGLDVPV

IC50 | Compound
390 nM | CN(C)c1cc2c(Nc3ccc4c(cnn4Cc4ccccc4)c3)ncnc2cn1 [N*4*-(1-Benzyl-1H-indazol-5-yl)-N*6*,N*6*-dimethyl-pyrido[3,4-d]pyrimidine-4,6-diamine]

Target: not listed separately
Experiment: Inhibition of erbB2 overexpressing HB4a.e5.2 cell proliferation

IC50 | Compound
97 nM | CN(C)c1cc2c(Nc3ccc4c(cnn4Cc4ccccc4)c3)ncnc2cn1 [N*4*-(1-Benzyl-1H-indazol-5-yl)-N*6*,N*6*-dimethyl-pyrido[3,4-d]pyrimidine-4,6-diamine]

Target: not listed separately
Experiment: Inhibition of c-erbB-2 overexpressing HB4a cell proliferation

IC50 | Compound
3100 nM | COc1cc2ncnc(Nc3ccc4nn(Cc5ccccc5)cc4c3)c2cc1OC [(2-Benzyl-2H-indazol-5-yl)-(6,7-dimethoxy-quinazolin-4-yl)-amine]
290 nM | COc1cc2ncnc(Nc3ccc4c(cnn4Cc4ccccc4)c3)c2cc1OC [(1-Benzyl-1H-indazol-5-yl)-(6,7-dimethoxy-quinazolin-4-yl)-amine]
27000 nM | c1ccc(Cn2cnc3cc(Nc4ncnc5ccccc45)ccc32)cc1 [(1-Benzyl-1H-benzoimidazol-5-yl)-quinazolin-4-yl-amine]
1860 nM | Nc1cc2c(Nc3ccc4nc(Cc5ccccc5)[nH]c4c3)ncnc2cn1 [N*4*-(2-Benzyl-1H-benzoimidazol-5-yl)-pyrido[3,4-d]pyrimidine-4,6-diamine]
21000 nM | c1ccc(Cn2cnc3ccc(Nc4ncnc5ccccc45)cc32)cc1 [(3-Benzyl-3H-benzoimidazol-5-yl)-quinazolin-4-yl-amine]
1300 nM | c1ccc(Cc2nc3ccc(Nc4ncnc5ccccc45)cc3[nH]2)cc1 [(2-Benzyl-1H-benzoimidazol-5-yl)-quinazolin-4-yl-amine]
1300 nM | c1ccc(Cn2ccc3cc(Nc4ncnc5ccccc45)ccc32)cc1 [(1-Benzyl-1H-indol-5-yl)-quinazolin-4-yl-amine]
97 nM | Nc1cc2c(Nc3ccc4c(cnn4Cc4ccccc4)c3)ncnc2cn1 [N*4*-(1-Benzyl-1H-indazol-5-yl)-pyrido[3,4-d]pyrimidine-4,6-diamine]
350 nM | COc1cc2ncnc(Nc3ccc4c(ccn4Cc4ccccc4)c3)c2cc1OC [(1-Benzyl-1H-indol-5-yl)-(6,7-dimethoxy-quinazolin-4-yl)-amine]
1100 nM | COc1cc2ncnc(Nc3ccc4nc(Cc5ccccc5)[nH]c4c3)c2cc1OC [(2-Benzyl-1H-benzoimidazol-5-yl)-(6,7-dimethoxy-quinazolin-4-yl)-amine]

Reference: BindingDB's records for doi:10.1016/s0960-894x(01)00219-0 (Research Biomet. Glaxo Wellcome Medicines Research Centre, 2001)
